# In publication PMC9374667 (Communications Biology, 2022):
# Values joined by “and” are separate entries in the source; they are usually repeats but may differ in a detail not shown here. Equal values may be shown once.
# Assays:
# IKKε = target: T1, IKKε (Mus musculus, UniProt Q9R0T8); test: IKKε-knockdown 3T3-L1 adipocytes (siRNA; western blotting, cAMP, glycerol, ISO); format: cell-based, Murine; design: endogenous in cells; host or cells: differentiated 3T3-L1 adipocytes; details: for Glycerol (Figure 9l) / UCP1 (western blotting, Figure 9J) / cAMP (Figure 9k): 10μM BJ +
# T1 sequence (Q9R0T8 1-717): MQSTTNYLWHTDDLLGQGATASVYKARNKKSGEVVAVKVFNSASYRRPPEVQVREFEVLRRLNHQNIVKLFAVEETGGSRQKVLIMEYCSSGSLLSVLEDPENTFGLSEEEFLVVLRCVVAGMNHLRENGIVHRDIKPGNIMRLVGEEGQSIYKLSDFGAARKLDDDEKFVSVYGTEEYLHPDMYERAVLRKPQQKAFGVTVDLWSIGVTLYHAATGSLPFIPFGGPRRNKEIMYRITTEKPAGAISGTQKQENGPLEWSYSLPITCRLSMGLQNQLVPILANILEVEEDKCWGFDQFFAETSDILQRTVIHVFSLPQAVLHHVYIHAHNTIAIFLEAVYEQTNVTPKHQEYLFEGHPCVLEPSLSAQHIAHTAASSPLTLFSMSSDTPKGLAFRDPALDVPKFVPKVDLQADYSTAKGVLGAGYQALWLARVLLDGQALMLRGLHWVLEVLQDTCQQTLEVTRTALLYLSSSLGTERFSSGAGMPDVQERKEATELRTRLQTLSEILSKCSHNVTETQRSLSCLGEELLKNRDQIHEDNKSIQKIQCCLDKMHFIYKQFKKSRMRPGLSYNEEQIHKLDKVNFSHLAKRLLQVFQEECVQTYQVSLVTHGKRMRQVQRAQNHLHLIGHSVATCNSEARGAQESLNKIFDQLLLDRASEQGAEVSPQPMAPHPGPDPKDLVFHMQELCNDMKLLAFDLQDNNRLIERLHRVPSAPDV
# Procedure: Small interference RNA transfection (siRNA) was performed using 4 μM TBK1 siRNA (siTBK1) or 4 μM […]ε) or corresponding NC siRNA (siNC). The epididymal adipose tissue was dissected, the fresh adipose tissue was weighed and rapidly rinsed with PBS. The adipose tissue was cut and incubated with isoproterenol (10 μM) for 2 h, and homogenized in a cold cleavage buffer to prepare the adipose tissue homogenate. Then the homogenate was centrifuged at 12,000 × g at 4 °C for 15 min, and the supernatant was collected. […] Then the cells were lysed in a petri dish, scraped off, and centrifuged at 12,000 × g at 4 °C for 15 min before the supernatant was collected. […] And concentrations were further standardized according to protein concentration. The adipose tissue or 3T3-L1 adipocytes were homogenized by ultrasound in an ice-cold RIPA lysis buffer containing 1% PMSF and centrifuged at 12,000 × g at 4°C for 15 min to collect the supernatant. The BCA protein assay kit (Beyotime, Shanghai, China) was used to detect the total protein concentration. Proteins (20-30 μg) of the sample were separated by 10% SDS-PAGE gel and transferred onto polyvinylidene difluoride (PVDF) membranes. Then the PVDF membranes were blocked in 5% skim milk powder in TBS containing 1% Tween-20 (TBST) for 2 h at room temperature and washed with TBST for 3 times. […] After washing, the membranes were incubated with horseradish peroxidase-conjugated secondary antibodies (in 5% skim milk powder) for 1 h at room temperature. Finally, the membranes were treated with enhanced chemiluminescence agents (Tanon, Shanghai, China) and the signals were monitored using the Tanon 5200 multi chemiluminescent imaging system (Tanon, Shanghai, China).
# [1] = tested on: TNF-α, IL-6, MCP-1, F4/80 (Adgre1), CD11c (Itgax); test: qRT-PCR of inflammatory related genes and macrophage marker genes in eWAT; format: in vivo, mice; design: key to Tnf-α / IL-6 / Ccl2 / Adgre1 / Itgax: relative expression normalized to gapdh, 2^-ΔΔCt method
# Source text: Total RNA was isolated from 3T3-L1 cells and adipose tissue homogenates using Trizol reagent (Invitrogen, Carlsbad, CA, USA). RNA concentration and purity were examined at 260/280 nm using a nanodrop spectrophotometer (NanoDrop One, Thermo Fisher Scientific, USA). The total RNA was reverse transcribed to cDNA using the EasyScript All-in-One First-Strand cDNA Synthesis SuperMix for qPCR kit (TransGen Biotech, Beijing, China). The quantitative reverse transcription polymerase chain reaction was performed using TransStart Top Green qPCR SuperMix (TransGen Biotech, Beijing, China) and an Applied Biosystems 7500 RealTime PCR System (Life Technologies, USA). Relative expression levels were normalized to gapdh expression and quantified using the 2^-ΔΔCt method. The primers were synthesized by Shanghai Sangon Biotech, and the detailed primer sequences were shown in Supplementary Table 5 in the supplementary materials.
# 3T3-L1 adipocytes = test: Immunofluorescence staining of UCP1 and MitoTracker; format: cell-based, Murine; design: key: mean fluorescence intensity measured in ImageJ; details: Figure 7d; 10uM BBR; replicates
# Procedure: The 3T3-L1 adipocytes were washed with PBS for 3 times, fixed with 4% paraformaldehyde solution for 30 min, and then washed again for 3 times. […] The cells were then incubated overnight at 4 °C with the appropriate primary antibodies (1:100 dilution). The next day, the 3T3-L1 adipocytes were washed and incubated at room temperature with goat anti-rabbit secondary antibody or goat anti-mouse secondary antibody (1:1000 dilution) for 2 h and washed with PBS for 3 times. The nuclei were stained with DAPI. […] Fluorescence images were taken using a laser confocal microscope (SP8, Leica, Germany). At least four images per section were acquired for quantification, and the mean intensity were evaluated using ImageJ.
# [2] = Figure 5g, BBR 150mg/kg, replicates, first Veh value = 1
compound,measurement,setting,value
"CC(C)Cc1ccc(C(C)C(=O)[O-])cc1.COc1ccc2cc3[n+](cc2c1OC)CCc1cc2c(cc1-3)OCO2.O.O.O.O [BJ, berberine-ibuprofen]","IKKϵ (western blotting, Figure 9h)",IKKε; 10μM BJ,0.1875 and 0.2278 and 0.214
same,"UCP1 (western blotting, Figure 9i)",IKKε; 10μM BJ,0.3644 and 0.4778 and 0.4436
same,Expression of UCP1,IKKε; 3T3-L1 adipocytes treated with BJ alone,significantly increased
same,UCP1 expression,"IKKε; IKKε-knockdown 3T3-L1 adipocytes treated with BJ, vs IKKε-knockdown",not significantly altered
same,"cAMP accumulation, glycerol release, and UCP1 expression","IKKε; IKKε-knockdown 3T3-L1 adipocytes, ISO stimulation, BJ vs IKKε-knockdown",did not significantly increase the above changes
same,"cAMP accumulation, glycerol release, and UCP1 expression","IKKε; ISO-stimulated 3T3-L1 adipocytes, BJ treatment alone","significantly increased cAMP accumulation, glycerol release, and UCP1 expression"
same,Glycerol (Figure 9l),"IKKε; siIKKϵ +, ISO +",176.805 µmol/L and 182.076 µmol/L and 176.254 µmol/L
same,"UCP1 (western blotting, Figure 9J)","IKKε; siIKKϵ +, ISO +",0.785 and 0.7814 and 0.8472
same,cAMP (Figure 9k),"IKKε; siIKKϵ +, ISO +",0.4194 pmol/mg protein and 0.4185 pmol/mg protein and 0.3432 pmol/mg protein and 0.371 pmol/mg protein and 0.3866 pmol/mg protein and 0.405 pmol/mg protein
same,Glycerol (Figure 9l),"IKKε; siIKKϵ +, ISO -",89.0822 µmol/L and 96.3611 µmol/L and 91.9299 µmol/L
same,"UCP1 (western blotting, Figure 9J)","IKKε; siIKKϵ +, ISO -",0.6376 and 0.6905 and 0.6507
same,cAMP (Figure 9k),"IKKε; siIKKϵ +, ISO -",0.2155 pmol/mg protein and 0.2223 pmol/mg protein and 0.1908 pmol/mg protein and 0.2097 pmol/mg protein and 0.2158 pmol/mg protein and 0.2252 pmol/mg protein
same,Glycerol (Figure 9l),"IKKε; siIKKϵ -, ISO +",156.977 µmol/L and 167.166 µmol/L and 170.891 µmol/L
same,"UCP1 (western blotting, Figure 9J)","IKKε; siIKKϵ -, ISO +",0.6574 and 0.7704 and 0.6754
same,cAMP (Figure 9k),"IKKε; siIKKϵ -, ISO +",0.362 pmol/mg protein and 0.3606 pmol/mg protein and 0.3205 pmol/mg protein and 0.3322 pmol/mg protein and 0.3416 pmol/mg protein and 0.3545 pmol/mg protein
same,Glycerol (Figure 9l),"IKKε; siIKKϵ -, ISO -",81.5401 µmol/L and 78.1125 µmol/L and 83.122 µmol/L
same,"UCP1 (western blotting, Figure 9J)","IKKε; siIKKϵ -, ISO -",0.5736 and 0.639 and 0.5661
same,cAMP (Figure 9k),"IKKε; siIKKϵ -, ISO -",0.1756 pmol/mg protein and 0.1959 pmol/mg protein and 0.2053 pmol/mg protein and 0.1755 pmol/mg protein and 0.1805 pmol/mg protein and 0.1893 pmol/mg protein
same,"IKKϵ (western blotting, Figure 9h)",IKKε; siIKKϵ+10μM BJ,0.09311 and 0.1256 and 0.1406
same,"UCP1 (western blotting, Figure 9i)",IKKε; siIKKϵ+10μM BJ,0.4915 and 0.4988 and 0.5593
"COc1ccc2cc3[n+](cc2c1OC)CCc1cc2c(cc1-3)OCO2 [BBR, Berberine chloride dihydrate]",Adgre1,[1]; [2],0.3 and 0.2426 and 0.368
same,Ccl2,[1]; [2],0.8769 and 0.7967 and 0.7737
same,IL-6,[1]; [2],0.5766 and 0.5775 and 0.5396
same,Itgax,[1]; [2],0.806 and 0.855 and 0.8182
same,Tnf-α,[1]; [2],0.6975 and 0.7551 and 0.7391
same,"mRNA levels of TNF-α, IL-6, MCP-1, F4/80 (Adgre1) and CD11c (Itgax) in eWAT","[1]; db/db mice, 5 weeks of treatment, vs vehicle",reduced the mRNA levels
same,MitoTracker,3T3-L1 adipocytes,25.545 and 18.064 and 22.543 and 21.627 and 16.023 and 19.205 and 20.957 and 15.64 and 24.469 and 20.477 and 21.808 and 21.524
same,UCP1,3T3-L1 adipocytes,28.534 and 25.717 and 23.768 and 26.01 and 16.988 and 23.573 and 17.055 and 20.669 and 24.128 and 20.8 and 21.801 and 21.746
